According to patent US10662214B2, “Compound of 4′-thionucleoside, as well as preparation method therefor, pharmaceutical composition thereof and application thereof” (Sichuan Kelun-Biotech Biopharmaceutical Co., Ltd., priority 2015, dated 2020):
“Also recorded” adds a separate entry of the source.

Key:
[1] = tested on: pancreatic cancer cell BxPC-3; test: CCK-8 inhibition of proliferation, BxPC-3; type: cell-based, human
Method: (§1) The tumor cell lines employed in the present experiment were gastric cancer cell NCI-N87 (obtained from Guangzhou Jennio Biological Technology Co., Ltd.), colorectal cancer cell HCT-116 (obtained from Chengdu Center for Safety Evaluation of Drugs), colorectal cancer cell HCT-15 and pancreatic cancer cell BxPC-3 (both obtained from ATCC, US).
(§2) Each of the cell lines is cultured in a corresponding culture medium (RPMI-1640, IMDM and L-15 culture medium (manufacturer: Gibco)) supplemented with 10% heat inactivated Fetal Bovine Serum (manufacturer: Sigma), in an incubator at 37° C. and 5% CO2.
(§3) For each type of tumor cells, a blank group, a vehicle group (containing 1‰ DMSO) and 8 groups with a test compound at concentrations of 5 nM, 10 nM, 50 nM, 100 nM, 500 nM, 1000 nM, 5000 nM, and 10000 nM (with each concentration in triplicate) were set.
(§4) Appropriate amounts of test compounds were weighted, and dissolved in DMSO (cell culture grade, Sigma) to prepare stock solutions of various concentration gradients according to desired concentrations. During incubation, they were diluted by 1000 times as necessary, and incubation solutions with various drug concentrations were prepared (compound stock solution:medium containing 2% FBS=1:1000).
(§5) The experiment was performed according to a CCK-8 method as described below. Cancer cells to be tested were seeded in a 96-well culture plate at a concentration of 5˜10×10^4/mL (100 μL/well), followed by incubation at 37° C. and 5% CO2 for 24 h. The medium was discarded, and incubation solutions with different drug concentrations (200 μL) were respectively added to each well, and the cells were further incubated for 72 h. After the incubation, a CCK-8 solution (20 μL/well) was added to each well to be tested, and the incubation was continued for 4 h in the incubator. OD values at two wavelengths (Detection wavelength: 450 nm, and reference wavelength: 650 nm) were determined on a multifunctional fully-automatic microplate reader.
(§6) The inhibitory rate of tumor cell growth was calculated according to the following formula: Inhibitory rate=[(ODvehicle−ODblank)−(ODdrug−ODblank)]/(ODvehicle−ODblank)*100%
(§7) Based on the inhibitory rate, a concentration-inhibitory rate curve was fit using GraphPad prism 5.0 software, and IC50 was calculated.

[2] = tested on: human pancreatic cancer cell BxPC-3; test: Subcutaneous xenograft of human pancreatic cancer cell BxPC-3 in a nude mouse (Experimental example 4); type: in vivo
Method: According to methods similar to those in sections 1 to 3 in Experimental example 2, pancreatic cancer cell BxPC-3 was cultured as a monolayer in vitro, and inoculated; the animals were randomized into groups; and samples were prepared.
Mice bearing a tumor having a volume of 80-250 mm^3 were selected, and randomized into 6 groups (8 mice per group). The dosing volume was 10 mL/kg.
(§8) For statistical calculations of the test indexes, please refer to Experimental example 2.
The test results obtained by administrating (intravenous administration (i.v.) or oral administration (p.o.)) once a week for 3 weeks are shown in table 7-2.

[3] = tested on: human pancreatic cancer cell Capan-1; test: Subcutaneous xenograft of human pancreatic cancer cell Capan-1 in a nude mouse (Experimental example 5); type: in vivo; conditions: once every 3 days, 6 times
Method: According to methods similar to those in sections 1 to 2 in Experimental example 2, pancreatic cancer cell Capan-1 was cultured as a monolayer in vitro, and inoculated, and the animals were randomized into groups.
Samples were prepared as described in Experimental example 2.
Mice bearing a tumor having a volume of 100-200 mm^3 were selected, and randomized into 7 groups (7 mice per group).
as §8

[4] = tested on: colorectal cancer cell HCT-116; test: CCK-8 inhibition of proliferation, HCT-116; type: cell-based, human
Method: as §1, §2
For each type of tumor cells, a blank group, a vehicle group (containing 1‰ DMSO) and 8 groups with a test compound at concentrations of 5 nM, 10 nM, 50 nM, 100 nM, 500 nM, 1000 nM, 5000 nM, and 10000 nM (with each concentration in triplicate) were set. […]
The experiment was performed according to a CCK-8 method as described below. […] OD values at two wavelengths (Detection wavelength: 450 nm, and reference wavelength: 650 nm) were determined on a multifunctional fully-automatic microplate reader.
as §6, §7

[5] = Intravenous toxicity test in mice (administration for 7 days); type: in vivo
Description: This test was used to investigate the toxic reactions after intravenous administration of compound C8 to normal KM mice for 7 consecutive days.
KM mice passing the quarantine control were randomized into 4 groups (3 mice/gender/group). The test compound and vehicle control were formulated according to Experimental example 2. The mortality, appearance, behavior, mental status, secretion and excreta etc. of the animals were observed every day for 7 consecutive days after the administration, and the animals were anatomized on day 8.

[6] = tested on: gastric cancer cell NCI-N87; test: Subcutaneous xenograft of gastric cancer cell NCI-N87 in nude mice (Experimental example 2); type: in vivo; conditions: for TGI (%): twice a week for 3 weeks; for Body weight change: 14 days after last administration vs beginning; for Tumor regression, CR (complete tumor regression): animals out of 8
Method: (§9) This experimental example was used for the evaluation of the effectiveness of the compounds of the present invention in inhibiting the proliferation of a subcutaneous xenograft of human tumor cells via various routes of administration.
(§10) Gastric cancer cell NCI-N87 and colorectal cancer cell HCT-116 were cultured as a monolayer in vitro, and the culture conditions were RPMI-1640 culture medium supplemented with 10% heat inactivated Fetal Bovine Serum, and incubation in an incubator at 37° C. and 5% CO2. The cells were subcultured by treatment with trypsin-EDTA digestion.
(§11) The tumor cells were respectively inoculated into BALB/c nude mice (SPF grade, female, 16-18 g per mouse, about 6 to 8 weeks old, Beijing Vital River Laboratory Animal Technology Co., Ltd.).
(§12) Each nude mouse was inoculated with about 2.5×10^6 HCT-116 tumor cells or about 3×10^6 NCI-N87 tumor cells (suspended in 0.1 ml PBS) subcutaneously into the underarm of the right flank. After the inoculated tumor reached a size in the range of about 100-200 mm^3, nude mice bearing a tumor that is too small (smaller than 100 mm^3) or too big (bigger than 200 mm^3) were removed from the study, and the remaining ones were randomized into groups.
(§13) Sulfobutyl ether-β-cyclodextrin (SE-β-CD) was formulated with physiological saline to form a 10% solution, which was then filtered through a 0.22 μm sterile filter for later use.
(§14) An appropriate amount of the test compound was weighted, and added in DMSO. The resultant solution was vortexed to uniformity, and the 10% solution of SE-β-CD was added according to the desired concentration. The solution was vortexed to uniformity, and the final concentration of DMSO was adjusted to 5%. A gemcitabine injection (a positive control) was directly diluted to the desired concentration with physiological saline. A 10% solution of SE-β-CD containing 5% DMSO was prepared as a vehicle control.
(§15) Mice bearing a tumor having a volume of about 100-200 mm^3 were selected, and randomized into 5 groups (8 mice per group). The dosing volume was 10 mL/kg, and the administration (intravenous administration (i.v.) or oral administration (p.o.)) was performed twice a week for 3 weeks. The tumor volume and body weight were measured twice a week after the administration, and the mortality of animals was observed every day.
(§16) The diameter of a tumor was measured, and the tumor volume was calculated according to the following formula: V=0.5a×b^2, wherein a and b respectively represent the major and minor diameters of a tumor. The anti-tumor effect was evaluated by the tumor growth inhibition (TGI) (%). TGI (%)=[1−(VT-end−VT-start)/(VC-end−VC-start)]*100%
(§17) The body weight of an animal was measured twice a week.

[7] = tested on: human pancreatic cancer cell PANC-1; test: Subcutaneous xenograft of human pancreatic cancer cell PANC-1 in a nude mouse (Experimental example 6); type: in vivo; conditions: once every 3 days, 6 times
Method: This test was performed according to experimental example 5.
Mice bearing a tumor having a volume of 100-200 mm^3 were selected, and randomized into 4 groups (6 mice per group).

[8] = tested on: colorectal cancer cell HCT-116; test: Subcutaneous xenograft of colorectal cancer cell HCT-116 in nude mice (Experimental example 2); conditions: for TGI (%): twice a week for 3 weeks; for Body weight change: 14 days after last administration vs beginning; for Tumor regression, CR (complete tumor regression) / Tumor regression, PR (partial tumor regression): animals out of 8
Method: as §9, §10, §11, §12, §13, §14, §15, §16, §17

[9] = tested on: colorectal cancer cell HCT-15; test: CCK-8 inhibition of proliferation, HCT-15; type: cell-based, human
Method: as §1, §2, §3, §4, §5, §6, §7

[10] = tested on: gastric cancer cell NCI-N87; test: CCK-8 inhibition of proliferation, NCI-N87; type: cell-based, human
Method: as §1, §2, §3, §4, §5, §6, §7

[11] = 115.38 μmol/kg i.v., 7 days, anatomy on day 8

**Q.** For `CC(C)OC(=O)[C@H](C)N[P@](=O)(OC[C@H]1S[C@@H](n2ccc(N)nc2=O)[C@@H](F)[C@@H]1O)Oc1ccccc1` [Compound C8, (S)-isopropyl 2-(((S)-(((2R,3S,4S,5R)-5-(4-amino-2-oxopyrimidin-1(2H)-yl)-4-fluoro-3-hydroxytetrahydrothiophen-2-yl)methoxy)(phenoxy)phosphoryl)amino)propanoate], which “inhibitory effect on pancreatic cancer cell BxPC-3 (in words)” value ([1]; FIG. 1: 5-10000 nM) is on record?
**A.** The value was “potent inhibitory effects; also recorded: excellent inhibitory effects”.

**Q.** What about the IC50 ([1]; Homo sapiens, BXPC-3, CCK-8, 72 h incubation) of the same compound?
**A.** Its IC50 is 0.705 µM.

**Q.** What about the “TGI (%)” value ([2]; 0.06 mmol/kg p.o., twice a week for 3 weeks) of the same compound?
**A.** Its value is 47.7%.

**Q.** What about the “TGI (%)” value ([2]; 0.12 mmol/kg p.o., twice a week for 3 weeks) of the same compound?
**A.** Its value is 53.2%.

**Q.** And the “TGI (%)” value ([2]; 0.23 mmol/kg p.o., once a week for 3 weeks)?
**A.** The value was 51.0%.

**Q.** What about the “TGI (%)” value ([3]; 0.02 mmol/kg p.o.) of the same compound?
**A.** Its value is 25.6%.

**Q.** And the “TGI (%)” value ([3]; 0.06 mmol/kg i.v.)?
**A.** The value was 81.8%.

**Q.** And the “TGI (%)” value ([3]; 0.06 mmol/kg p.o.)?
**A.** The value was 79.1%.

**Q.** What about the “TGI (%)” value ([3]; 0.19 mmol/kg p.o.) of the same compound?
**A.** Its value is 138.5%.

**Q.** And the “inhibitory effect on colorectal cancer cell HCT-116 (in words)” value ([4]; FIG. 1: 5-10000 nM)?
**A.** The value was “potent inhibitory effects; also recorded: excellent inhibitory effects”.

**Q.** What about the IC50 ([4]; Homo sapiens, HCT-116, CCK-8, 72 h incubation) of the same compound?
**A.** Its IC50 is 0.485 µM.

**Q.** What about the “body weight increase on day 8, female mice” value ([5]; 115.38 μmol/kg i.v., 7 days) of the same compound?
**A.** Its value is 13.1%.

**Q.** And the “body weight increase on day 8, male mice” value ([5]; 115.38 μmol/kg i.v., 7 days)?
**A.** The value was 26.7%.

**Q.** And the “leukocyte count decrease vs vehicle group, female” value [5, 11]?
**A.** Its value is 45%.

**Q.** And the “leukocyte count decrease vs vehicle group, male” value [5, 11]?
**A.** The value was 49%.

**Q.** What about the “platelet count decrease vs vehicle group, female” value [5, 11] of the same compound?
**A.** Its value is 43%.

**Q.** What about the “platelet count decrease vs vehicle group, male” value [5, 11] of the same compound?
**A.** The value was 39%.

**Q.** What about the “symptoms observed on day 8” value ([5]; compound C8 60.9 mg/kg (115.38 μmol/kg) i.v., 7 consecutive days) of the same compound?
**A.** Its value is “no relevant abnormalities were observed”.

**Q.** And the “TGI (%)” value ([6]; 190 μmol/kg i.v.)?
**A.** Its value is 109%.

**Q.** And the Body weight change ([6]; 190 μmol/kg i.v.)?
**A.** The Body weight change was “+8.1%”.

**Q.** And the “Tumor regression, CR (complete tumor regression)” value (shortened to “Tumor regression, CR”) ([6]; 190 μmol/kg i.v.)?
**A.** The value was 8/8 CR.

**Q.** What about the “TGI (%)” value ([6]; 190 μmol/kg p.o.) of the same compound?
**A.** Its value is 110%.

**Q.** And the Body weight change ([6]; 190 μmol/kg p.o.)?
**A.** The Body weight change was “+8.1%”.

**Q.** What about the “Tumor regression, CR” value ([6]; 190 μmol/kg p.o.) of the same compound?
**A.** The value was 8/8 CR.

**Q.** And the “TGI (%)” value ([7]; 0.06 mmol/kg p.o.)?
**A.** Its value is 155%.

**Q.** What about the “TGI (%)” value ([7]; 0.19 mmol/kg p.o.) of the same compound?
**A.** The value was 195%.

**Q.** What about the Mortality ([8]; 190 μmol/kg i.v.) of the same compound?
**A.** Its Mortality is 0.

**Q.** And the “TGI (%)” value ([8]; 190 μmol/kg i.v.)?
**A.** The value was 111%.

**Q.** And the Body weight change ([8]; 190 μmol/kg i.v.)?
**A.** The Body weight change was “+7.4%”.

**Q.** And the “Tumor regression, CR” value ([8]; 190 μmol/kg i.v.)?
**A.** The value was 1/8 CR,.

**Q.** What about the “Tumor regression, PR (partial tumor regression)” value ([8]; 190 μmol/kg i.v.) of the same compound?
**A.** Its value is 7/8 PR.

**Q.** What about the Mortality ([8]; 190 μmol/kg p.o.) of the same compound?
**A.** The Mortality was 0.

**Q.** And the “TGI (%)” value ([8]; 190 μmol/kg p.o.)?
**A.** The value was 113%.

**Q.** And the Body weight change ([8]; 190 μmol/kg p.o.)?
**A.** Its Body weight change is “+8.9%”.

**Q.** What about the “Tumor regression, CR” value ([8]; 190 μmol/kg p.o.) of the same compound?
**A.** The value was 1/8 CR,.

**Q.** And the “Tumor regression, PR (partial tumor regression)” value ([8]; 190 μmol/kg p.o.)?
**A.** Its value is 7/8 PR.

**Q.** What about the “inhibitory effect on colorectal cancer cell HCT-15 (in words)” value ([9]; FIG. 1: 5-10000 nM) of the same compound?
**A.** Its value is “potent inhibitory effects; also recorded: excellent inhibitory effects”.

**Q.** And the IC50 ([9]; Homo sapiens, HCT-15, CCK-8, 72 h incubation)?
**A.** The IC50 was 1.96 µM.

**Q.** What about the “inhibitory effect on gastric cancer cell NCI-N87 (in words)” value ([10]; FIG. 1: 5-10000 nM) of the same compound?
**A.** Its value is “potent inhibitory effects; also recorded: excellent inhibitory effects”.

**Q.** And the IC50 ([10]; Homo sapiens, NCI-N87, CCK-8, 72 h incubation)?
**A.** The IC50 was 0.483 µM.
